Results from the supplement of paper PMC10307832.

Columns and labels:
Assay in all cases: relative viability (nuclei count vs DMSO), 5 days (fraction); higher = more cells survive
Cediranib + Tozasertib = compound: COc1cc2c(Oc3ccc4[nH]c(C)cc4c3F)ncnc2cc1OCCCN1CCCC1 [Cediranib] + Cc1cc(Nc2cc(N3CCN(C)CC3)nc(Sc3ccc(NC(=O)C4CC4)cc3)n2)n[nH]1 [Tozasertib] (partner 0.1 µM)
Outline: (§1)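 One day after seeding in 1536-well plates, lung cancer cell lines were dosed by pin tool. Dosing was either single-drug or a fixed anchor-drug dose plus five library-drug doses (not always all listed) in √10 steps. After 5 days, nuclei were stained in one fix-and-stain step and counted on 4× images, and relative viability is the nuclei count of treated wells over that of vehicle wells, given as the median of duplicate plates.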

Halofuginone + Dasatinib = compound: O=C(C[C@H]1NCCC[C@@H]1O)Cn1cnc2cc(Br)c(Cl)cc2c1=O (racemic) [Halofuginone] + Cc1nc(Nc2ncc(C(=O)Nc3c(C)cccc3Cl)s2)cc(N2CCN(CCO)CC2)n1 [Dasatinib] (partner 0.075 µM)
Outline: as §1

Cediranib + OSI-027 = compound: COc1cc2c(Oc3ccc4[nH]c(C)cc4c3F)ncnc2cc1OCCCN1CCCC1 [Cediranib] + COc1cccc2cc(-c3nc([C@H]4CC[C@H](C(=O)O)CC4)n4ncnc(N)c34)[nH]c12 [OSI-027] (partner 0.5 µM)
Outline: as §1

Halofuginone + Alpelisib = compound: O=C(C[C@H]1NCCC[C@@H]1O)Cn1cnc2cc(Br)c(Cl)cc2c1=O (racemic) [Halofuginone] + Cc1nc(NC(=O)N2CCC[C@H]2C(N)=O)sc1-c1ccnc(C(C)(C)C(F)(F)F)c1 [Alpelisib] (partner 2 µM)
Outline: as §1

Cell Line	relative viability (Cediranib + Tozasertib; first compound 0.1265 µM)	relative viability (Cediranib + Tozasertib; first compound 0.4 µM)	relative viability (Cediranib + Tozasertib; first compound 1.265 µM)	relative viability (Cediranib + Tozasertib; first compound 4 µM)	relative viability (Halofuginone + Dasatinib; first compound 0.001 µM)	relative viability (Halofuginone + Dasatinib; first compound 0.003162 µM)	relative viability (Halofuginone + Dasatinib; first compound 0.01 µM)	relative viability (Halofuginone + Dasatinib; first compound 0.03162 µM)	relative viability (Halofuginone + Dasatinib; first compound 0.1 µM)	relative viability (Cediranib + OSI-027; first compound 0.1265 µM)	relative viability (Cediranib + OSI-027; first compound 0.4 µM)	relative viability (Cediranib + OSI-027; first compound 1.265 µM)	relative viability (Cediranib + OSI-027; first compound 4 µM)	relative viability (Halofuginone + Alpelisib; first compound 0.001 µM)	relative viability (Halofuginone + Alpelisib; first compound 0.003162 µM)	relative viability (Halofuginone + Alpelisib; first compound 0.01 µM)	relative viability (Halofuginone + Alpelisib; first compound 0.03162 µM)	relative viability (Halofuginone + Alpelisib; first compound 0.1 µM)	relative viability (Cediranib + Tozasertib; first compound 0.04 µM)	relative viability (Cediranib + OSI-027; first compound 0.04 µM)
NCI-H727	0.591	0.536	0.762	0.549	0.417	0.411	0.397	0.396	0.263	0.486	0.523	0.468	0.617	0.623	0.437	0.478	0.456	0.221		
NCI-H358	0.0968	0.0956	0.105	0.101	0.175	0.188	0.115	0.0901	0.0916	0.967	0.683	0.609	0.845	0.898	0.818	0.711	0.305	0.164	0.123	0.812
NCI-H1437	0.426	0.365	0.412	0.421	0.377	0.445	0.431	0.364	0.285	0.992	0.796	0.851	1.02	0.996	0.957	0.979	0.673	0.294	0.434	0.841
NCI-H441		0.545	0.55	0.677	0.654	0.576	0.668	0.459	0.237		0.658	0.675	0.632	0.602	0.605	0.623	0.664	0.262	0.787	0.809
EMC-BAC-2	0.238	0.278	0.286	0.3	0.362	0.343	0.301	0.298	0.163	0.503	0.38	0.319	0.367	0.765	0.761	0.766	0.723	0.517	0.284	0.377
NCI-H647	0.225	0.3	0.227	0.255	0.219	0.216	0.188	0.171	0.099	0.694	0.549	0.49	0.841	1.24	1.17	1.1	0.781	0.102	0.306	0.614
CAL-12T	0.333	0.29	0.397	0.293	0.685	0.396	0.377	0.282	0.154	0.568	0.624	0.416	0.992	1.4	1.16	1.03	1.11	1.02	0.333	0.814
NCI-H1792					0.973	0.791	0.844	0.76	0.607	0.732	0.661	0.76	0.757	0.795	0.724	0.702	0.662	0.686		0.731
H3255		0.599	0.654	0.43	0.429	0.317	0.357	0.328	0.334		0.638	0.58	0.533	0.664	0.619	0.558	0.683	0.606	0.578	0.658
HCC-78	0.474	0.512	0.54	0.441	0.44	0.364	0.357	0.4	0.503	0.448	0.376	0.311	0.356	0.409	0.327	0.299	0.374	0.215	0.448	0.356
EBC-1														0.939	0.779	0.666	0.441	0.181		
NCI-H2405	0.88	0.717	0.778	0.757	0.21	0.246	0.241	0.209	0.223	0.606	0.617	0.52	0.622	0.94	0.939	0.839	0.757	0.546	0.75	0.648
A549														0.919	0.765	0.685	0.44	0.15		
NCI-H3122		0.364	0.53	0.468	0.852	0.658	0.735	0.806	0.66		0.897	0.888	0.975	0.79	0.801	0.638	0.76	0.781	0.393	1.09
NCI-H1563					0.477	0.432	0.418	0.487	0.408	1.03	0.767	0.744	0.796	0.874	0.935	0.851	0.633	0.508		0.799
HCC-44		0.893	1.05	0.831							0.447	0.473	0.619	0.804	0.774	0.691	0.797	0.433		
PC-3 [JPC-3]	0.906	0.947	0.891	0.876	0.933	0.966	0.955	1.02	1.03	0.824	0.73	0.688	0.627	1.09	1.03	0.95	1.01	0.92	0.886	0.777
NCI-H1993	0.586	0.596	0.565	0.734	0.619	0.558	0.562	0.532	0.434	0.579	0.548	0.506	0.545	0.696	0.677	0.664	0.711	0.57	0.607	0.421
LOU-NH91	0.67	0.646	0.708	0.658	0.632	0.578	0.555	0.582	0.498	0.862	0.707	0.582	0.701	0.774	0.731	0.721	0.741	0.64	0.473	0.769
SW 900	0.507	0.584	0.48	0.571	1	0.677	0.555	0.616	0.163	0.642	0.504	0.59	0.69						0.605	0.712

Cell Line	relative viability (Cediranib + Tozasertib; first compound 0.1265 µM)	relative viability (Cediranib + Tozasertib; first compound 0.4 µM)	relative viability (Cediranib + Tozasertib; first compound 1.265 µM)	relative viability (Cediranib + Tozasertib; first compound 4 µM)	relative viability (Halofuginone + Dasatinib; first compound 0.001 µM)	relative viability (Halofuginone + Dasatinib; first compound 0.003162 µM)	relative viability (Halofuginone + Dasatinib; first compound 0.01 µM)	relative viability (Halofuginone + Dasatinib; first compound 0.03162 µM)	relative viability (Halofuginone + Dasatinib; first compound 0.1 µM)	relative viability (Cediranib + OSI-027; first compound 0.1265 µM)	relative viability (Cediranib + OSI-027; first compound 0.4 µM)	relative viability (Cediranib + OSI-027; first compound 1.265 µM)	relative viability (Cediranib + OSI-027; first compound 4 µM)	relative viability (Halofuginone + Alpelisib; first compound 0.001 µM)	relative viability (Halofuginone + Alpelisib; first compound 0.003162 µM)	relative viability (Halofuginone + Alpelisib; first compound 0.01 µM)	relative viability (Halofuginone + Alpelisib; first compound 0.03162 µM)	relative viability (Halofuginone + Alpelisib; first compound 0.1 µM)	relative viability (Cediranib + Tozasertib; first compound 0.04 µM)	relative viability (Cediranib + OSI-027; first compound 0.04 µM)
LCLC-103H	0.505	0.467	0.469	0.5	0.551	0.423	0.472	0.48	0.388	0.501	0.474	0.467	0.504	1.09	1.02	0.915	0.954	0.956	0.501	0.469
NCI-H1915	0.384	0.428	0.46	0.42	0.308	0.332	0.322	0.294	0.23	0.516	0.566	0.624	0.669	1.08	1.11	1.05	0.921	0.929	0.467	0.559
IA-LM														0.829	0.982	0.664	0.606	0.161		
NCI-H1734	0.246	0.278	0.277	0.245	0.52	0.558	0.436	0.449	0.293	0.705	0.583	0.515	0.64	0.685	0.679	0.674	0.612	0.452	0.262	0.517
SK-MES-1	0.917	0.908	0.924	0.898	0.38	0.429	0.446	0.283	0.117	0.633	0.608	0.542	0.788	0.952	1.32	0.853	0.832	0.522	0.903	0.666
Calu-6														1.16	1.01	0.94	0.362	0.17		
HCC-15		0.391	0.36	0.358	0.645	0.677	0.572	0.593	0.322		0.674	0.692	0.717	0.847	0.903	0.861	0.888	0.683	0.507	0.625
SK-LU-1	0.412	0.305	0.365	0.335	0.204	0.211	0.198	0.183	0.137	0.39	0.338	0.257	0.33	1.14	1.13	1.02	0.888	0.247	0.316	0.343
NCI-H2023	0.353	0.267	0.433	0.303	0.649	0.609	0.507	0.241	0.0614	0.402	0.374	0.385	0.415	0.645	0.624	0.519	0.281	0.147	0.389	0.342
HCC-366	0.0898	0.125	0.136	0.147	0.709	0.804	0.684	0.66	0.414	0.877	0.841	0.84	1.07	0.369	0.412	0.449	0.385	0.197	0.114	0.933
NCI-H1355	0.684	0.482	0.564	0.492	0.762	0.764	0.727	0.692	0.458	0.363	0.387	0.34	0.449	0.811	0.781	0.894	0.79	0.743	0.548	0.38
NCI-H1650	0.374	0.36	0.476	0.329	0.339	0.329	0.293	0.2	0.166	0.596	0.589	0.577	0.436						0.585	0.781
NCI-H2342	0.575	0.568	0.536	0.484	0.302	0.326	0.309	0.326	0.378	0.671	0.659	0.549	0.508						0.54	0.615
NCI-H1299														1.04	1.09	1.02	1.01	1.04		
NCI-H522	0.465	0.541	0.535	0.51	0.894	0.863	1.06	0.806	0.881	0.77	0.686	0.707	0.694						0.687	0.719
NCI-H1623		0.427	0.469	0.43	0.588	0.43	0.523	0.468	0.394	0.442	0.477	0.423	0.392						0.453	0.426
NCI-H1648		0.449	0.502	0.442							0.259	0.272	0.246						0.55	0.284
NCI-H1703														0.334	0.398	0.239	0.27	0.165		
ChaGo-K-1	0.263	0.236	0.202	0.209	0.502	0.602	0.607	0.622	0.6	0.363	0.535	0.572	0.615						0.214	0.441
